Results on 4 compounds are retold here after patent US4937244A, “Substituted 3-aminosydnonimines, processes for their preparation and their use” (Cassella Aktiengesellschaft, priority 1987, dated 1990).

pIC50: −log10 of the molar value. Counter-ions that a name gives are not always drawn.

The test relates to arteria pulmonalis of the guinea pig. In words: Relaxing action on potassium-depolarized, CaCl2-contracted spiral strips of guinea pig pulmonary artery (modified method of Godfraind and Kaba and of Schuman et al). It counts as cell-based. The note with it: Cavia porcellus; spiral strips depolarized with 40 mmol/l potassium; contraction initiated with 0.5 mmol/l CaCl2; cumulative addition; mean value of 4 to 6 strips of vessel; read-out: IC50 (concentration of test substance which inhibits the contraction by 50%). An excerpt:
The pharmacological action of the compounds of the formula I has been determined by a modified method of Godfraind and Kaba (Arch. Int. Pharmacodyn. Ther. 196, (Suppl) 35 to 49, 1972) and of Schuman et al (Naunyn-Schmiedeberg's Arch Pharmacol. 289 409 to 418, 1975). […], spiral strips of the arteria pulmonalis of the guinea pig are depolarized with 40 mmol/l of potassium after equilibration in calcium-free tyrode solution. Addition of 0.5 mmol/l of CaCl2 then initiates a contraction. The relaxing action of the test substance is determined by cumulative addition in concentrations in steps of 1/2 log 10. The concentration of test substance which inhibits the contraction by 50% (=IC50, mol/l) is determined from the concentration/effects curve (abscissa: -log mol/l of test substance, ordinate: % inhibition of the maximum concentration, mean value of 4 to 6 strips of vessel).
In the case of `CC1(C)CCCC(C)(C)N1[n+]1cc(=N)o[n-]1` [a, 3-(2,2,6,6-Tetramethylpiperidino)-sydnonimine hydrochloride], the pIC50 is 4.52.
For the compound `CC(C)N1CC(C)(C)N([n+]2cc(=N)o[n-]2)C(C)(C)C1` [b, 3-(2,2,6,6-Tetramethyl-4-isopropyl-piperazin-1-yl)sydnonimine dihydrochloride], the pIC50 is 5.52.
As for `CC1(C)COCC(C)(C)N1[n+]1cc(=N)o[n-]1` [c, 3-(3,3,5,5-Tetramethylmorpholino)-sydnonimine hydrochloride], the pIC50 was 4.00.
Next, `CCOC(=O)[N-]c1cn(N2CCOCC2)n[o+]1` [d, N-Ethoxycarbonyl-3-morpholinosydnonimine, reference compound]: 3.52.
